Values quoted from earlier work, collected in patent US20200069758A1, “COMPOSITION FOR USE IN THE PREVENTIVE AND/OR CURATIVE TREATMENT OF NON-ALCOHOLIC FATTY LIVER DISEASE” (NORMAPHAR SA, priority 2018, published 2020).

Settings: background art statement; for complications / mortality on administration: long-term or high-dose administration

Compound	reduction of non-alcoholic fatty liver disease (simple fatty liver disease, NASH)	complications / mortality on administration
Vitamin E	reductions were observed in the inflammation and non-alcoholic fatty liver disease	increases all-cause mortality
CN(C)C(=N)N=C(N)N [metformin]	failed to significantly reduce	
CCc1ccc(CCOc2ccc(CC3SC(=O)NC3=O)cc2)nc1 (stereo not shown) [pioglitazone]		heart failure, osteoporosis and weight gain
